Measurements: patent publication US10647680B2, “Urea compound, preparation method therefor and medical use thereof” (Ancureall Pharmaceutical (Shanghai) Co., Ltd., priority 2016, dated 2020)
Read-outs that look alike come from different tables or passages of the source.

Legend:
[1] = test system: RS4; 11 (FLT3 wild type); assay: In vitro growth inhibition (GI50), RS4; 11; type: cell-based, human; conditions: for GI50: Homo sapiens; for GI50 value, RS4; 11 (in words) / inhibitory effect on RS4; 11: FLT3 wild type high-expressing cells RS4; for inhibitory effect on RS4; 11: 11, under high concentrations
[2] = test system: NCI-H1581 (FGFR1 amp); assay: In vitro growth inhibition (GI50), NCI-H1581; type: cell-based; conditions: Homo sapiens
Text: Tumor cell line is an effective cell model for studying the inhibition of tumor cell growth or proliferation in vitro. In the present invention, a representative tumor cell line was selected to determine the cell growth inhibition activity of the present compound. All cell lines used were from ATCC, DSMZ, and the Cell Bank of the Chinese Academy of Sciences. Cell culture conditions and methods were in accordance with the requirements of each cell line. Cells were subcultured in vitro for no more than 3 passages each time, and as required, single-clone purification and identification of cell lines could be carried out.
The cell culture media used were RPMI1640 (Gibco), MEM (Gibco), McCOY'S5A (Gibco), and IMDM (Gibco). The complete medium was prepared by supplement with 5˜20% fetal calf serum (Gibco), 1% double-antibiotics (10000 units/mL penicillin and 10000 units/mL), 2 mM glutamine or 1 mM sodium pyruvate, respectively.
Human non-small cell lung cancer cell NCI-H1581 (FGFR1 amp, ATCC) is an FGFR1 gene amplified/overexpressed tumor cell line. It was cultured in complete medium comprising 1×RPMI1640 with 10% FBS.
Adherent cells were digested with 0.25% pancreatin-EDTA (Gibco). The suspension cells were collected by centrifugation. The supernatant was discarded and the cell pellet was resuspended and counted. Different cell concentrations (5˜10×10^4 cells/mL) were prepared according to the growth cycle of each cell line and then seeded on a 96-well plate (Corning), 100 μL/well. The cells were incubated overnight at 37° C., 5% CO2. The compounds were added to the cells on the second day with 2 wells in parallel. The final concentration of organic solvent shall not exceed 1%. The cells were continually incubated for 3 to 5 days, and then subjected to MTT assay.
The compound of the present invention and the control compound were dissolved in DMSO (Sigma) respectively, with the purity of more than 98%. The compound was stored in a concentration of 10 mM at −20° C. and diluted to 2- or 10-fold series prior to use.
Dojindo CCK8 reagent kit was used as MTT assay. THERMO […] FC meter was used as microplate reader.
For adherent cells, culture medium was removed and immediately replaced with the fresh prepared medium which contains 10% CCK8 reagent (100 μL/well). For the suspension cells, CCK8 was directly added to 10% of the final concentration. The cells were continually incubated for 1˜4 h. When a dark yellow color could be observed in the solvent control wells, the absorbance value at OD450 nm was measured and the cell growth rate was calculated according to the following formula: Cell Growth Rate (%)=100*(T−T0)/(C−T0) T=optical density of drug treatment cell well—optical density of blank control well; T0=optical density of cell well before drug treatment—optical density of blank control well; C=optical density of cell well of solvent control group—optical density of blank control well. The concentration value of 50% inhibition of cell growth (GI50) was calculated according to the drug concentration and cell growth rate curve. The experiment was independently repeated 1˜3 times, and subject to biological statistical analysis. 4. Experimental Results
Tumor cell growth inhibition test was performed by selecting representative compounds (compounds 4, 11, 12, 16, 27, 68, 71, 77, 79, 89 and 116 of the present invention). The initial concentration of the compound was 5,000 nM, then it was serially diluted by 2-fold or 10-fold to 0.01 nM. The GI50 value of each test compound was calculated according to the GI50 assay and calculation method. The experiments were repeated 1 to 3 times, and data were subjected to biological statistical analysis.

[3] = test system: HL-60 (FLT3 wild type); assay: In vitro growth inhibition (GI50), HL-60; type: cell-based; conditions: Homo sapiens, Cell lines of leukemia, read-out: GI 50 HL60 FLT3 (WT)
In short: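 After 3–5 days of treatment (top concentration 5,000 nM, serially diluted 2- or 10-fold to 0.01 nM, solvent ≤1%), viability was read by CCK8 at OD450. Growth rate was normalised to the time-zero and solvent-control wells, and GI50 was derived from the curve. Cultures in RPMI1640 + 10% FBS.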

[4] = RS4-11, Cell lines of leukemia, read-out: GI 50 RS4: 11 FLT3 (WT)
[5] = FLT3 wild-type high expressing cell RS4, 11, Table 3, read-out: GI50 value, RS4, 11
[6] = RS4, 11, FLT3 WT, read-out: GI50

| SMILES | GI50 [1, 4] [nM] | GI50 [1, 5] [nM] | GI50 [1, 6] [nM] | GI50 [2] [nM] | GI50 [3] [nM] | GI50 value, RS4; 11 (in words) [1]; 11 | inhibitory effect on RS4; 11 [1] |
| --- | --- | --- | --- | --- | --- | --- | --- |
| CC(C)(C)c1cc(NC(=O)Nc2ccc(-n3cnc4cc(O)ccc43)cc2)no1 [Compound 4, 1-(5-tert-butyl-isoxazol-3-yl)-3-[4-(5-hydroxy-benzimidazol-1-yl)-phenyl]-urea] | 100 to 1000 | 50 to 800 | 234 | > 2500 | 100 to 1000 | – | – |
| CC(C)(C)c1cc(NC(=O)Nc2ccc(-n3cnc4cc(OCCO)ccc43)cc2)no1 [Compound 11, 1-(5-tert-butyl-isoxazol-3-yl)-3-{4-[5-(2-hydroxy-ethoxyl)-benzimidazol-1-yl]-phenyl]-urea] | 10 to 100 | 50 to 800 | 57.4 | > 2500 | > 1000 | – | – |
| CC(C)(C)c1cc(NC(=O)Nc2ccc(-n3cnc4cc(OCCN5CCOCC5)ccc43)cc2)no1 [Compound 16, 1-(5-tert-butyl-isoxazol-3-yl)-3-{4-[5-(2-morpholin-4-yl-ethoxyl)-benzimidazol-1-yl]-phenyl}-urea] | > 1000 | – | 1750 | > 2500 | > 1000 | micromolar range | no obvious inhibitory effect |
| CC(C)(C)c1cc(NC(=O)Nc2ccc(-n3cnc4ccc(OCCN5CCOCC5)cc43)cc2)no1 [Compound 27, 1-(5-tert-butyl-isoxazol-3-yl)-3-{4-[6-(2morpholin-4-yl-ethoxyl)-benzimidazol-1-yl]-phenyl}-urea] | > 1000 | – | 2380 | > 2500 | 100 to 1000 | micromolar range | no obvious inhibitory effect |
| CC(C)(C)c1cc(NC(=O)Nc2ccc(-n3cnc4ccccc43)cc2)[nH]n1 [Compound 68, 1-(4-benzimidazol-1-yl-phenyl)-3-(5-tert-butyl-2H-pyrazol-3-yl)-urea] | > 1000 | – | 3500 | > 2500 | > 1000 | micromolar range | no obvious inhibitory effect |
| COCCOc1ccc2c(c1)ncn2-c1ccc(NC(=O)Nc2cc(C(C)(C)C)n[nH]2)cc1 [Compound 77, 1-(5-tert-butyl-2H-pyrazol-3-yl)-3-{4-[5-(2-methoxyl-ethoxyl)-benzimidazol-1-yl]-phenyl}-urea] | > 1000 | – | 2490 | > 2500 | > 1000 | micromolar range | no obvious inhibitory effect |

Now from value to molecule, other results behind:

| GI50 [1, 4] [nM] | GI50 [1, 5] [nM] | GI50 [1, 6] [nM] | GI50 [2] [nM] | GI50 [3] [nM] | GI50 value, RS4; 11 (in words) [1]; 11 | SMILES | inhibitory effect on RS4; 11 [1] |
| --- | --- | --- | --- | --- | --- | --- | --- |
| > 1000 | – | 2750 | > 2500 | > 1000 | micromolar range | COc1ccc2c(c1)ncn2-c1ccc(NC(=O)Nc2cc(C(C)(C)C)n[nH]2)cc1 [Compound 71, 1-(5-tert-butyl-2H-pyrazol-3-yl)-3-[4-(5-methoxyl-benzimidazol-1-yl)-phenyl]-urea] | no obvious inhibitory effect |
| > 1000 | 50 to 800 | 768 | > 2500 | > 1000 | – | CC(C)(C)c1cc(NC(=O)Nc2ccc(-n3cnc4cc(OCCO)ccc43)cc2)[nH]n1 [Compound 79, 1-(5-tert-butyl-2H-pyrazol-3-yl)-3-{4-[5-(2-hydroxy-ethoxyl)-benzimidazol-1-yl]-phenyl]urea] | – |
| > 1000 | – | 2090 | > 2500 | > 1000 | micromolar range | CC(C)(C)c1cc(NC(=O)Nc2ccc(-n3cnc4cc(OCCN5CCOCC5)ccc43)cc2)[nH]n1 [Compound 89, 1-(5-tert-butyl-2H-pyrazol-3-yl)-3-{4-[5-(2-morpholin-4-yl-ethoxyl)-benzimidazol-1-yl]-phenyl}-urea] | no obvious inhibitory effect |
| > 1000 | – | 2100 | > 2500 | > 1000 | micromolar range | CC(C)(C)c1cc(N)n(C(=O)Nc2ccc(-n3cnc4ccccc43)cc2)n1 [Compound 116, 5-amino-3-tert-butyl-pyrazol-1-carboxylic acid (4-benzimidazol-1-yl-phenyl)-amide] | no obvious inhibitory effect |
